The values below come from patent publication US8138194B2, “Fused bicyclic pyrimidine compounds as aurora kinase inhibitors” (National Health Research Institutes, priority 2008, dated 2012).

Values joined by “and” are separate entries in the source; they are usually repeats but may differ in a detail not shown here. Equal values may be shown once. Some results are limits rather than exact numbers.

For assay [1], the target named is T1, GST-tAurora A (123-401aa) fusion protein (Homo sapiens, UniProt O14965).
T1 construct: GST-tAurora A (123-401aa) fusion protein; made in house; host or cells: Sf9 insect cells (baculovirus, pBacPAK8)
T1 sequence (O14965 123-401): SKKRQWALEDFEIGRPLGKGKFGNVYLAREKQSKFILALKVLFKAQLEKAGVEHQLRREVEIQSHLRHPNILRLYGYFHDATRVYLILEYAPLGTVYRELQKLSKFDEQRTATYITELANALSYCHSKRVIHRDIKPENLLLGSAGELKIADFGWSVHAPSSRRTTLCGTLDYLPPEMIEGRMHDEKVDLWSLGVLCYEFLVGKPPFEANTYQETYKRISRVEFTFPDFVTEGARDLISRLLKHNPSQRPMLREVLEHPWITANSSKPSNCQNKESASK
Kind of assay: Aurora Kinase A luminescent kinase assay. In kind it is biochemical. The settings on record: IC50 (concentration of a test compound at which activity of 50% of Aurora A is inhibited).

In another assay the test system is HCT-116 cells. Kind of assay: HCT-116 cell viability MTS assay. In kind it is cell-based. The settings on record: Homo sapiens, read-out: IC50 (concentration of a test compound which causes 50% of the cell death); HCT-116, 96-h incubation, MTS. As to the method:
HCT-116 cell viability was examined by the MTS assay (Promega, Madison, Wis., USA). 2000 HCT-116 cells in 100 μL McCoy's 5a medium were seeded in each well of a 96-well plate. After 96-h incubation with a test compound, the cells were incubated with 20 μL of a MTS/PMS mixture (MTS/PMS ratio: 20: 1) for 2 h at 37° C. in a humidified incubator with 5% CO2 to allow viable cells to convert the tetrazolium salt (MTS) into formazan. The amount/concentration of formazan, which indicates the number of live cells, was determined by measuring the absorbance at 490 nm using a PerkinElmer Victor2 plate reader (PerkinElmer, Shelton, Cont., USA).
(In general: Formazan colour is commonly taken as a measure of viable cells.)

Another assay concerns the target T2, PLK4 (Homo sapiens, UniProt O00444).
T2 sequence (O00444 1-970): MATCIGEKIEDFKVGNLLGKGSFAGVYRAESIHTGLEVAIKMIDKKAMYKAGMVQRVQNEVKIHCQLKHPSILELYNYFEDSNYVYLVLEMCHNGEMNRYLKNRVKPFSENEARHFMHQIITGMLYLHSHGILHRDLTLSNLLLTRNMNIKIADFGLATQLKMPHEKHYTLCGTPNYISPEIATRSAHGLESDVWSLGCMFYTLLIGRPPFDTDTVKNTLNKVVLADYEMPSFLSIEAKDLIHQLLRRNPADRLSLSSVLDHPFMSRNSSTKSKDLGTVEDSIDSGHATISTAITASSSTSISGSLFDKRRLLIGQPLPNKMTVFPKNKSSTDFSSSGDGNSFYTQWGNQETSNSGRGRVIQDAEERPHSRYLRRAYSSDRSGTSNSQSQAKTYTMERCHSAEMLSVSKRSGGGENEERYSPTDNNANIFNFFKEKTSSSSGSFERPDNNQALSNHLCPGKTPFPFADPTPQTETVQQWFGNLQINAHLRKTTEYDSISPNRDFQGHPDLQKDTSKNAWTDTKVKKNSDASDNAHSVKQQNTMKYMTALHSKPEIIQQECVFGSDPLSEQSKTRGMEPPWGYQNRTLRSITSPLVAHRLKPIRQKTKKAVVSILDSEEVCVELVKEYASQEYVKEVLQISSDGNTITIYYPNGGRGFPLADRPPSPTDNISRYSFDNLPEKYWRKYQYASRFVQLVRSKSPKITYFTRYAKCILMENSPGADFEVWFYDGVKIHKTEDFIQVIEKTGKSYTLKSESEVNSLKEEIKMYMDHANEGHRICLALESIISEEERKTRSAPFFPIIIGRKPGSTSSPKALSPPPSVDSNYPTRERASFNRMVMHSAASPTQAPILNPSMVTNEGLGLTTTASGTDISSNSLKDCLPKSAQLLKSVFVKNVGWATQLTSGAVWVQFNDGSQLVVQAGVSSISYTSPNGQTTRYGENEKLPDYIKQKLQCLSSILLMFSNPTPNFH
Kind of assay: Inhibition of other protein kinases: PLK4. In kind it is biochemical.

Another assay has as its target PDGFRB (Homo sapiens, UniProt P09619). Kind of assay: Inhibition of other protein kinases: PDGFRB. In kind it is biochemical.
The target of another assay is T3, FLT3 (Homo sapiens, UniProt P36888).
T3 sequence (P36888 27-993): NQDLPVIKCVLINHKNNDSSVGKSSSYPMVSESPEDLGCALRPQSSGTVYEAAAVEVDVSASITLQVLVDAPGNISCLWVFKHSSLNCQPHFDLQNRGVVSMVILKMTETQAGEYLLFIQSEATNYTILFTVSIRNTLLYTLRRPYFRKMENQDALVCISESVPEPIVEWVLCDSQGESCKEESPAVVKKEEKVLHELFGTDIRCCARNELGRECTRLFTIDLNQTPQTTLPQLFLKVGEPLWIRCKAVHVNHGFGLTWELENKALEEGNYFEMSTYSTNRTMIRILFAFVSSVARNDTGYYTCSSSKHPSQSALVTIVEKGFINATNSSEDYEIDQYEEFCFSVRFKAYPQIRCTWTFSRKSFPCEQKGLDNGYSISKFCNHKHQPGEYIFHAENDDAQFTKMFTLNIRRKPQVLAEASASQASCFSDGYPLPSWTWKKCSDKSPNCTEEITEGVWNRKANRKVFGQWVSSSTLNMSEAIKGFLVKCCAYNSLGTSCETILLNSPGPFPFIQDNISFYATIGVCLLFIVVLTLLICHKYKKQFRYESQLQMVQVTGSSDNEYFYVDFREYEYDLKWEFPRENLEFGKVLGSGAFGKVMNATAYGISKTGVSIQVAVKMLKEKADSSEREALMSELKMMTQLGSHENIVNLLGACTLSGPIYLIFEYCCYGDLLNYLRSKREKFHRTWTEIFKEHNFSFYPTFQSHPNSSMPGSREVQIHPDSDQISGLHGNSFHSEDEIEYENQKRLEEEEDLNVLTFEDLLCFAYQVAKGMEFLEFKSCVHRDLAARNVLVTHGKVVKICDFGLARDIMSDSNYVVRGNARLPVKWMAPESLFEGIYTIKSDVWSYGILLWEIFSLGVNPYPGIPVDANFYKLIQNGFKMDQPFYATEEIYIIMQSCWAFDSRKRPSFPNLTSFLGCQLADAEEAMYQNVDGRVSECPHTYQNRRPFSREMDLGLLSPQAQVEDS
Kind of assay: Inhibition of other protein kinases: FLT3. In kind it is biochemical.

For another assay, the system named is HCT-116 xenografts. Kind of assay: In vivo anticancer activity, colon tumor xenograft mice (injected with HCT-116). Also on record: species or system nude mice. The settings on record: for average tumor size: treated mice. As to the method:
In vivo efficacy of the compounds of this invention was assessed using colon tumor xenograft mice (injected with HCT-116), as described in Cancer Research 2004, 64, 4621-4628.
HCT-116 cells were grown as subcutaneous tumors in nude mice. When well-established HCT-116 xenografts were palpable with tumor size of ˜100 mm^3, mice were randomly assigned to three groups: a vehicle control group (10 mice), a positive control group (10 mice), and a treatment group (21 mice). Of the treated mice, ten received Compound 209 at a daily dosage of 5 mg/kg and eleven received the same compound at a daily dosage of 15 mg/kg of via IV injection through the tail veins for 5 days/week for 2 consecutive weeks (days 1-5 and 8-12). The positive control mice received VX-680 (a known anti-cancer compound) at a daily dosage of 50 mg/kg, also via IV injection through the tail veins for 5 days/week for 2 consecutive weeks (days 1-5 and 8-12).

Chain of PDGFRB (P09619 33-1106, species assumed): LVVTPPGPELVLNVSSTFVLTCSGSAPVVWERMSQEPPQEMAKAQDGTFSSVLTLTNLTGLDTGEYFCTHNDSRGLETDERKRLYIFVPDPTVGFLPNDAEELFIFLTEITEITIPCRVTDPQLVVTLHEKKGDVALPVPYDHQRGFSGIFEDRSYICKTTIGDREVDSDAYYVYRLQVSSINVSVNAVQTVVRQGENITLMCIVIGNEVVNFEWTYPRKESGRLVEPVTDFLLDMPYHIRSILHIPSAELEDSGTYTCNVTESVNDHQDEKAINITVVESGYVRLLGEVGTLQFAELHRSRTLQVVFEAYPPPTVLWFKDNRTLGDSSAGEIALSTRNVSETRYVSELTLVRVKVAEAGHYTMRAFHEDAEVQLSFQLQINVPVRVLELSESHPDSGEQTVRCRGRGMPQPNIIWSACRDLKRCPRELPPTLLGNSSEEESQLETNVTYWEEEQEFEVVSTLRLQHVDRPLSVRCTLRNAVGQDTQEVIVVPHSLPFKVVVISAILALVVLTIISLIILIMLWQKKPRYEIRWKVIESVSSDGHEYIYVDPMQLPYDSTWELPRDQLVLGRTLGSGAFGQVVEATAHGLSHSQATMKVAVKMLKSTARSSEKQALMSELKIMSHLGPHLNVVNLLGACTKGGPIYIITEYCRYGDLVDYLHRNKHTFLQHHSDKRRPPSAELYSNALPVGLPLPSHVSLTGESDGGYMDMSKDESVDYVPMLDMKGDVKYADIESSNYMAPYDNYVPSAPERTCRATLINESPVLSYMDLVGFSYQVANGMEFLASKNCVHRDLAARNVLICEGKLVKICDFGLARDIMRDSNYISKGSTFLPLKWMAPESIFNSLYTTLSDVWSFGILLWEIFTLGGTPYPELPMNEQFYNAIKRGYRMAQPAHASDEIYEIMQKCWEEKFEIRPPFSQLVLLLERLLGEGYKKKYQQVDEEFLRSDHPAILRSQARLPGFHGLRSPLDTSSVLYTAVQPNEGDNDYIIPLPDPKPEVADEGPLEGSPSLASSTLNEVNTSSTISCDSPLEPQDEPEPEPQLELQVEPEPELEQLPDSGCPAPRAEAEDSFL

For `O=C(Nc1ccccc1)Nc1ccc(CCNc2ncnc3oc(-c4ccccc4)c(Cl)c23)cc1` [Compound 82], the IC50 in assay [1] is 45 to 400 nM and < 1000 nM; in the assay on HCT-116 cells, 100 to 900 nM. Also, the “inhibits the activity of PLK4” value against PLK4 is “inhibits”. Further, the “inhibits the activity of PDGFRB” value against PDGFRB is given as “inhibits”. Also, the “inhibits the activity of FLT3” value at FLT3 was “inhibits”.

As to `CN(C)Cc1ccccc1NC(=O)Nc1ccc(CCNc2ncnc3oc(-c4ccccc4)c(Cl)c23)cc1` [Compound 209], the IC50 in assay [1] was < 1000 nM and 45 to 400 nM; with HCT-116 cells it was under 100 nM. Besides, in the assay on HCT-116 xenografts (5 mg/kg daily, IV, days 1-5 and 8-12), the tumor growth suppression result is “suppressed tumor growth insignificantly”. In addition, the “inhibition of tumor growth” value in the assay on HCT-116 xenografts (15 mg/kg daily, IV, days 1-5 and 8-12) is on record as “inhibition of tumor growth comparable to that of VX-680”. In addition, the average tumor size in the assay with HCT-116 xenografts (eleventh day (dose group not stated)) is recorded as 654 mm^3; in the assay with HCT-116 xenografts (fourth day (dose group not stated)), 381 mm^3.

For `Cc1cc(Nc2cc(N3CCN(C)CC3)nc(Sc3ccc(NC(=O)C4CC4)cc3)n2)n[nH]1` [VX-680, reference compound], the “inhibition of tumor growth” value in the assay with HCT-116 xenografts (50 mg/kg daily, IV, days 1-5 and 8-12, positive control) is “inhibition of tumor growth”.
